Where two headings read alike, the source gives them in different places.
Assays:
Assay type in all cases: binding
[1] = molecular target: T1, 5-HT7bR (Homo sapiens, UniProt P34969); assay: [3H]-5-CT displacement, HEK293 membranes
T1 construct: gene HTR7; human splice isoform 5-HT7b stably expressed in HEK293 cells; membranes
From the text: [3H]-5-CT displacement, HEK293 membranes on 5-HT7bR

[2] = molecular target: T2, 5-HT6R (Homo sapiens, UniProt P50406); assay: [3H]-LSD displacement, HEK293 membranes
T2 construct: gene HTR6; full-length human receptor stably expressed in HEK293 cells; membranes
From the text: [3H]-LSD displacement, HEK293 membranes on 5-HT6R

[3] = molecular target: T3, 5-HT2AR (Homo sapiens, UniProt P28223); assay: [3H]-Ketanserin displacement, CHO-K1 membranes
T3 construct: gene HTR2A; full-length human receptor expressed from plasmid in CHO-K1 cells (PerkinElmer); membranes
From the text: [3H]-Ketanserin displacement, CHO-K1 membranes on 5-HT2AR

[4] = molecular target: T4, 5-HT1AR (Homo sapiens, UniProt P08908); assay: [3H]-8-OH-DPAT displacement, HEK293 membranes
T4 construct: gene HTR1A; full-length human receptor stably expressed in HEK293 cells; membranes
T4 sequence (P08908 1-422): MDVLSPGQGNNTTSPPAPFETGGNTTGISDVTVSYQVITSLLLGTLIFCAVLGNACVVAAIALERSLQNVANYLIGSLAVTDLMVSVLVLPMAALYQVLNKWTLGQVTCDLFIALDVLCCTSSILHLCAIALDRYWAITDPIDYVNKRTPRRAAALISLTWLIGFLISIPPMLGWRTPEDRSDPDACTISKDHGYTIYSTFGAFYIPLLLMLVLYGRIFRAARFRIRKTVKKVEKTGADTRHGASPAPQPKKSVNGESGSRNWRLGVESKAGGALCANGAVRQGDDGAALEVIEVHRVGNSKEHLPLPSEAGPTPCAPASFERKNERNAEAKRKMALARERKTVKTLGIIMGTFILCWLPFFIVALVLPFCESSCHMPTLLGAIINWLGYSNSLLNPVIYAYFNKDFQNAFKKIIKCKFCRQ
From the text: [3H]-8-OH-DPAT displacement, HEK293 membranes on 5-HT1AR

T2 sequence (P50406 whole entry): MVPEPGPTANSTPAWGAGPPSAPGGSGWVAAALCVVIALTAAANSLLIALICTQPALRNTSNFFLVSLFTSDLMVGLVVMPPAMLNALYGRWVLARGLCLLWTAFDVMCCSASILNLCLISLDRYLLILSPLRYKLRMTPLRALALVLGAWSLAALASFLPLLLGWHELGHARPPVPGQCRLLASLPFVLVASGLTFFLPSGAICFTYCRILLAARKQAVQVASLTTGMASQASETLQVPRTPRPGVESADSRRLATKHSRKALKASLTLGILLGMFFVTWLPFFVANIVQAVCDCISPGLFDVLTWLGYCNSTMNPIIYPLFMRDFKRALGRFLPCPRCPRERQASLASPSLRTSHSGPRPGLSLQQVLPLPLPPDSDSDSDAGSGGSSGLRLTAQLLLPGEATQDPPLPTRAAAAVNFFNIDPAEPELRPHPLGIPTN
T3 sequence (P28223 whole entry): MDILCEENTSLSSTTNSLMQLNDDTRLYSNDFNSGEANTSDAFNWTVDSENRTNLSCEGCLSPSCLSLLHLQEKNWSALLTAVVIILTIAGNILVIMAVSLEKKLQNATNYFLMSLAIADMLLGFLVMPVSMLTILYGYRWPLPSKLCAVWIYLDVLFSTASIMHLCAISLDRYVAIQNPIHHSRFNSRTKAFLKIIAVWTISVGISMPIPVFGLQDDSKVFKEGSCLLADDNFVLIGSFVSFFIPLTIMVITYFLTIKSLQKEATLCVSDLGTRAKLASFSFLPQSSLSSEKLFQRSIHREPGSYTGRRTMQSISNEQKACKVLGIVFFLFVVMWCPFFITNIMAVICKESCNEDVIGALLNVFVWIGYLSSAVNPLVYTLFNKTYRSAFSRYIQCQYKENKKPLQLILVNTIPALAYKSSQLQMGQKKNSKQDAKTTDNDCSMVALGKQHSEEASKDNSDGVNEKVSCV
T1 sequence (P34969 1-432): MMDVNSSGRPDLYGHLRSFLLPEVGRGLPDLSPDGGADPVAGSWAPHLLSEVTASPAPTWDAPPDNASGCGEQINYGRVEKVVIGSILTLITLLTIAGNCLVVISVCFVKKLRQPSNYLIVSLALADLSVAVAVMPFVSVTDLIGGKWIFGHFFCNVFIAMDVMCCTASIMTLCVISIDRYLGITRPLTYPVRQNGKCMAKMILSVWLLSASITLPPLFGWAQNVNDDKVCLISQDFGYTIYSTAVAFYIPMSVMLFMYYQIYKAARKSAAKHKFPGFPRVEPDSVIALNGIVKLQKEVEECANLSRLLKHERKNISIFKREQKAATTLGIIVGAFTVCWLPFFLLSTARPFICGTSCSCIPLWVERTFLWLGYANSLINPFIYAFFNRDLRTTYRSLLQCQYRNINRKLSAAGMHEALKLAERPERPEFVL

Which Ki ([1]; read-out: 5-HT7) does the source give for `O=S(=O)(c1ccccc1)N1CC2(CCN(Cc3ccccc3)C2)c2ccccc21` (centres unmarked) [39a, 1′-Benzyl-1-(phenylsulfonyl)spiro[indoline-3,3′-pyrrolidine]] here?
Its Ki is 55.8 µM.

What about the Ki ([2]; read-out: 5-HT6) of the same molecule?
Its Ki is 0.76 µM.

And the Ki ([3]; read-out: 5-HT2A)?
The Ki was 4.76 µM.

For `O=S(=O)(c1ccccc1)N1CC2(CCN(Cc3ccncc3)C2)c2ccccc21` (centres unmarked) [39b, 1-(Phenylsulfonyl)-1′-(pyridin-4-ylmethyl)spiro[indoline-3,3′-pyrrolidine]], which Ki [2] is on record?
Its Ki is 6.6 µM.

What about the Ki [3] of the same molecule?
Its Ki is 26.9 µM.

Which results are given for `CN1CCC2(C1)CN(S(=O)(=O)c1ccccc1)c1ccccc12` (centres unmarked) [40a, 1′-Methyl-1-(phenylsulfonyl)spiro[indoline-3,3′-pyrrolidine]]?
Ki ([1]; read-out: 5-HT7): 40.2 µM; Ki ([2]; read-out: 5-HT6): 1.85 µM; Ki ([3]; read-out: 5-HT2A): 4.52 µM

Which Ki ([2]; read-out: 5-HT6) does the source give for `CCN1CCC2(C1)CN(S(=O)(=O)c1ccccc1)c1ccccc12` (centres unmarked) [40b, 1′-Ethyl-1-(phenylsulfonyl)spiro[indoline-3,3′-pyrrolidine]] here?
Its Ki is 2.42 µM.

And the Ki ([3]; read-out: 5-HT2A)?
The Ki was 3.82 µM.

What does the source list for `O=S(=O)(c1ccccc1)N1CC2(CCN(Cc3ccccc3F)C2)c2ccccc21` (centres unmarked) [44a, 1′-(2-Fluorobenzyl)-1-(phenylsulfonyl)spiro[indoline-3,3′-pyrrolidine]]?
Ki [1]: 78.9 µM; Ki [2]: 4.53 µM

How did the Ki ([1]; read-out: 5-HT7) turn out when `O=S(=O)(c1ccccc1)N1CC2(CCN(Cc3cccc(F)c3)C2)c2ccccc21` (centres unmarked) [44b, 1′-(3-Fluorobenzyl)-1-(phenylsulfonyl)spiro[indoline-3,3′-pyrrolidine]] was run?
The Ki was 31.5 µM.

What about the Ki ([2]; read-out: 5-HT6) of the same molecule?
Its Ki is 1.97 µM.

What does the source list for `O=S(=O)(c1ccccc1)N1CC2(CCN(Cc3ccc(F)cc3)C2)c2ccccc21` (centres unmarked) [44c, 1′-(4-Fluorobenzyl)-1-(phenylsulfonyl)spiro[indoline-3,3′-pyrrolidine]]?
Ki ([1]; read-out: 5-HT7): 15.7 µM; Ki ([2]; read-out: 5-HT6): 1.77 µM

For `O=S(=O)(c1ccccc1F)N1CC2(CCN(Cc3ccccc3)C2)c2ccccc21` (centres unmarked) [46a, 1′-Benzyl-1-((2-fluorophenyl)sulfonyl)spiro[indoline-3,3′-pyrrolidine]], which Ki ([1]; read-out: 5-HT7) is on record?
Its Ki is 42.6 µM.

What about the Ki ([2]; read-out: 5-HT6) of the same molecule?
Its Ki is 0.19 µM.

For `O=S(=O)(c1cccc(F)c1)N1CC2(CCN(Cc3ccccc3)C2)c2ccccc21` (centres unmarked) [46b, 1′-Benzyl-1-((3-fluorophenyl)sulfonyl)spiro[indoline-3,3′-pyrrolidine]], which Ki ([1]; read-out: 5-HT7) is on record?
Its Ki is 76 µM.

And the Ki ([2]; read-out: 5-HT6)?
Its Ki is 0.71 µM.

Which results are given for `O=S(=O)(c1ccc(F)cc1)N1CC2(CCN(Cc3ccccc3)C2)c2ccccc21` (centres unmarked) [46c, 1′-Benzyl-1-((4-fluorophenyl)sulfonyl)spiro[indoline-3,3′-pyrrolidine]]?
Ki ([1]; read-out: 5-HT7): 56.1 µM; Ki ([2]; read-out: 5-HT6): 2.45 µM

How did the Ki ([1]; read-out: 5-HT7) turn out when `O=C1Nc2ccccc2C12CCNC2c1cccc(F)c1` (centres unmarked) [compound 6, 2′-(3-fluorophenyl)spiro[indoline-3,3′-pyrrolidin]-2-one] was run?
The Ki was 8.48 µM.

And the Ki ([2]; read-out: 5-HT6)?
Its Ki is 6.75 µM.

And the Ki ([4]; read-out: 5-HT1A)?
Its Ki is 16.9 µM.

What about the Ki ([3]; read-out: 5-HT2A) of the same molecule?
The Ki was 5.05 µM.

Which Ki [1] does the source give for `COc1ccc(C2NCCC23C(=O)Nc2ccccc23)cc1OC` (centres unmarked) [compound 7, 7] here?
The Ki was 2.69 µM.

And the Ki [2]?
The Ki was 2.26 µM.

And the Ki [4]?
Its Ki is 7.07 µM.

And the Ki [3]?
Its Ki is 5.45 µM.

Which results are given for `O=C1Nc2ccccc2C12CCNC2c1ccc(OCc2ccc(F)cc2)cc1` (centres unmarked) [compound 8, 8]?
Ki [1]: 1.09 µM; Ki [2]: 3.18 µM; Ki [4]: 1.74 µM; Ki [3]: 2.28 µM

How did the Ki [1] turn out when `O=C1Nc2ccccc2C12CCNC2c1ccc2c(c1)OCO2` (centres unmarked) [compound 9, 9] was run?
The Ki was 8.82 µM.

What about the Ki [2] of the same molecule?
Its Ki is 3.2 µM.

What about the Ki [4] of the same molecule?
Its Ki is 9.84 µM.

And the Ki [3]?
Its Ki is 2.69 µM.

How did the Ki [1] turn out when `O=C1Nc2ccccc2C12CCNC2c1ccc2c(c1)OCCO2` (centres unmarked) [compound 10, 10] was run?
Its Ki is 12.7 µM.

What about the Ki [2] of the same molecule?
The Ki was 4.11 µM.

What about the Ki [4] of the same molecule?
Its Ki is 12.1 µM.

What about the Ki [3] of the same molecule?
Its Ki is 4.33 µM.

For `N#Cc1cccnc1Oc1ccc(C2NCCC23C(=O)Nc2ccccc23)cc1` (centres unmarked) [compound 11, 11], which Ki [1] is on record?
The Ki was 59 µM.

What about the Ki [2] of the same molecule?
The Ki was 6.2 µM.

What about the Ki [4] of the same molecule?
The Ki was 49.1 µM.

What about the Ki [3] of the same molecule?
Its Ki is 8.68 µM.

`O=C1Nc2ccccc2C12CCNC2c1cccc2cccnc12` (centres unmarked) [compound 12, 12] was tested. Which Ki [1] did it give?
Its Ki is 10.5 µM.

What about the Ki [2] of the same molecule?
Its Ki is 6.63 µM.

And the Ki [4]?
Its Ki is 45.7 µM.

What about the Ki [3] of the same molecule?
Its Ki is 1.12 µM.

`COc1cc(C2NCCC23C(=O)Nc2ccccc23)ccc1OC(F)F` (centres unmarked) [compound 13, 13] was tested. Which Ki [1] did it give?
The Ki was 7.49 µM.

What about the Ki [2] of the same molecule?
The Ki was 7.73 µM.

What about the Ki [4] of the same molecule?
Its Ki is 7.14 µM.

And the Ki [3]?
The Ki was 5.77 µM.

For `CC(C)c1ccc(C2NCCC23C(=O)Nc2ccccc23)cc1` (centres unmarked) [compound 14, 14], which Ki [1] is on record?
Its Ki is 8.98 µM.

And the Ki [2]?
Its Ki is 8.62 µM.

What about the Ki [4] of the same molecule?
The Ki was 7.76 µM.

What about the Ki [3] of the same molecule?
The Ki was 4.54 µM.

How did the Ki [1] turn out when `Cn1c(=O)n(C)c2cc(C3NCCC34C(=O)Nc3ccccc34)ccc21` (centres unmarked) [compound 15, 15] was run?
The Ki was 46.7 µM.

What about the Ki [2] of the same molecule?
The Ki was 9.49 µM.

What about the Ki [4] of the same molecule?
Its Ki is 40.5 µM.

What about the Ki [3] of the same molecule?
Its Ki is 23.7 µM.

What does the source list for `O=C1Nc2ccc(F)cc2C12CCNC2c1ccc(F)c(Cl)c1` (centres unmarked) [compound 16, 16]?
Ki [2]: 16.5 µM; Ki [3]: 53.9 µM

Which Ki ([1]; read-out: 5-HT7) does the source give for `O=C1N(S(=O)(=O)c2ccccc2)c2ccccc2C12CCNC2` (centres unmarked) [compound 17, 1-(Phenylsulfonyl)spiro[indoline-3,3′-pyrrolidin]-2-one] here?
The Ki was 58.3 µM.

And the Ki ([2]; read-out: 5-HT6)?
The Ki was 12.3 µM.

Which results are given for `O=C1Nc2ccccc2C12CCN(S(=O)(=O)c1ccccc1)C2` (centres unmarked) [compound 18, 1′-(Phenylsulfonyl)spiro[indoline-3,3′-pyrrolidin]-2-one]?
Ki [2]: 6.86 µM; Ki [3]: 87.4 µM

— paper PMC6149751, “Spiro[pyrrolidine-3,3′-oxindoles] and Their Indoline Analogues as New 5-HT6 Receptor Chemotypes” (Molecules : A Journal of Synthetic Chemistry and Natural …, 2017)
